Laboratory results taken from patent US20240018153A1, “BENZENESULFONAMIDE DERIVATIVES AND USES THEREOF” (2692372 ONTARIO, INC., priority 2020, published 2024).

Assays:
EGFR = EGFR (Homo sapiens (Human), UniProt P00533); assay: HTRF KinEASE-TK kinase assay, EGFR; assay type: biochemical; details: 3 h preincubation; for remaining activity at 1 µM: 1 μM compound, read-out: % EGFR Remaining activity vs DMSO (1 μM, 3 h); for remaining activity at 10 µM: 10 μM compound, read-out: % EGFR Remaining activity vs DMSO (10 μM, 3 h)
Chain of EGFR (P00533 25-1210): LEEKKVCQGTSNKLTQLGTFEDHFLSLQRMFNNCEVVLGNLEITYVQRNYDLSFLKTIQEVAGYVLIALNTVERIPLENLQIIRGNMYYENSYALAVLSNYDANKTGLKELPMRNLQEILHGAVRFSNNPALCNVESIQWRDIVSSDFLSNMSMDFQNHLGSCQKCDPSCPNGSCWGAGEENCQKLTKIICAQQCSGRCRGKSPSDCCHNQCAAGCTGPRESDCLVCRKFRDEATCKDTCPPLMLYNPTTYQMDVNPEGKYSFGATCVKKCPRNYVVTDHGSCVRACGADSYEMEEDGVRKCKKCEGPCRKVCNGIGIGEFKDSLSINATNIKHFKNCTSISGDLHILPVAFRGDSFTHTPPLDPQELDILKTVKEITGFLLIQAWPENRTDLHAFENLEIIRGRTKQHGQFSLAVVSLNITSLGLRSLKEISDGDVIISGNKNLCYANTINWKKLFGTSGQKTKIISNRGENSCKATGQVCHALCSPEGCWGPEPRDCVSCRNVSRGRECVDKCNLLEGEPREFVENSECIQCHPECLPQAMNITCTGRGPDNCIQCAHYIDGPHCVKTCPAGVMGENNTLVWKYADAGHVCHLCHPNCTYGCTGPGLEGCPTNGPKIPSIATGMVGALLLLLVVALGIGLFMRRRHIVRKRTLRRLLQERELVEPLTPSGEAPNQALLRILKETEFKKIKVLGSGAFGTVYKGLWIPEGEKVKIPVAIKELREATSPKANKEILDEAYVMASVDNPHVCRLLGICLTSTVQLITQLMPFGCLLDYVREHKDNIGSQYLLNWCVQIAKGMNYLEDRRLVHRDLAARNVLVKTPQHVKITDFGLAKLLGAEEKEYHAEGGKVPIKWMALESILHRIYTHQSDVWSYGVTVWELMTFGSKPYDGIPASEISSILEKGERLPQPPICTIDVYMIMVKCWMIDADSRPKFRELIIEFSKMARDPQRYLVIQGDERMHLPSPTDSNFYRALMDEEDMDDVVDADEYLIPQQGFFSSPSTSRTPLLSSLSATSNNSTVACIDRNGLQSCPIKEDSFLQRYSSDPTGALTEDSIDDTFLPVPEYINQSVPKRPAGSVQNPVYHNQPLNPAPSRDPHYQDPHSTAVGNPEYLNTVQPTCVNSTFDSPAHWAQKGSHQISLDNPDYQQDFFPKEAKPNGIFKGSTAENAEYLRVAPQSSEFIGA
Experimental: Kinase activity was monitored using a HTRF® KinEASE-TK kit from Cisbio (62TK0PEC). The buffer used was 1× kinase buffer supplemented with 2 mM MnCl2, 5 mM MgCl2, 1 mM TCEP and 100× diluted Supplementary Enzyme Buffer. EGFR was purchased from Promega. […] Reaction with substrate was then initiated by adding biotinylated substrate and ATP. […] After 60 min of incubation, the fluorescence emission was measured at 620 nm and 665 nm. The ratio of Em 665 nm to Em 620 nm was proportional to the amount of substrate phosphorylated by the kinase.
For initial screening, enzymes were pre incubated with compounds at 2 different concentrations (1 and 10 uM final) and 0.5% DMSO.

BTK [1] = target: T1, BTK (Homo sapiens (Human), UniProt Q06187); assay: HTRF KinEASE-TK kinase assay, BTK; assay type: biochemical; details: 3 h preincubation; for remaining activity at 1 µM: 1 μM compound, read-out: % BTK Remaining activity vs DMSO (1 μM, 3 h); for remaining activity at 10 µM: 10 μM compound, read-out: % BTK Remaining activity vs DMSO (10 μM, 3 h)
T1 sequence (Q06187 whole entry): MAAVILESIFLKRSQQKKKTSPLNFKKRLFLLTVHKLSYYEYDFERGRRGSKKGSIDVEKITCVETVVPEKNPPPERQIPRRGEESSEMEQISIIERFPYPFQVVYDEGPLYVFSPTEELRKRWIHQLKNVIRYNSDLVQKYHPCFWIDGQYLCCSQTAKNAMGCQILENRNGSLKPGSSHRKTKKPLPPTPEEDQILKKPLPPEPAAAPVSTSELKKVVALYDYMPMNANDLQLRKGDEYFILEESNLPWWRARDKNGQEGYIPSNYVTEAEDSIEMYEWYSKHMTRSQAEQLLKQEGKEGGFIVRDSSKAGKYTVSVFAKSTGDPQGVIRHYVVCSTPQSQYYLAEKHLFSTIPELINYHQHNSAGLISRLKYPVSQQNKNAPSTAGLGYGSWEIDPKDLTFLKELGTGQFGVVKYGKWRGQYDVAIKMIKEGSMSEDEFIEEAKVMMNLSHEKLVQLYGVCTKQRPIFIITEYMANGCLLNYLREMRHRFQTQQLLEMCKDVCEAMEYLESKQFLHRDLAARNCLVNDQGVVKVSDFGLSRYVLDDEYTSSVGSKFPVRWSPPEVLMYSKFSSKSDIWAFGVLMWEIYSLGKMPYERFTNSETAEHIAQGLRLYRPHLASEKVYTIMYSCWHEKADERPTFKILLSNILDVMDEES
Experimental: Kinase activity was monitored using a HTRF® KinEASE-TK kit from Cisbio (62TK0PEC). For BTK, the 1× kinase buffer was supplemented with 10 mM MnCl2, 5 mM MgCl2, 1 uM ATPγS, 1 mM TCEP and 100 fold diluted Supplementary Enzyme Buffer. BTK was purchased from Promega. […] Reaction with substrate was then initiated by adding biotinylated substrate and ATP and the reaction was allowed to proceed for 45 min. […] After 60 min of incubation, the fluorescence emission was measured at 620 nm and 665 nm. The ratio of Em 665 nm to Em 620 nm was proportional to the amount of substrate phosphorylated by the kinase.

BTK [2] = target: T1, BTK; assay: Ramos RA1 cell lysis and immunoassay, phospho-BTK (Y223) inhibition; assay type: cell-based; design: key: X: BTK bound and autophosphoration of BTK inhibited in cells; details: RAMOS cells
Experimental: (§1) Ramos RA 1 cells (ATCC) were cultured in RPMI-1640 media (Wisent) supplemented with 10% heat-inactivated FBS and 1% penicillin/streptomycin. Cells were seeded in 6-well plates at 1.71×10^6 cells/well and incubated at 37° C., 5% CO2 for 16 hours. Cells were treated with compound at the indicated concentrations or DMSO alone and incubated at 37° C., 5% CO2 for 24 hours. Cell suspensions were centrifugated at 1,400-1,600 RPM for 5 minutes at room temperature and supernatants were discarded. Cell pellets were resuspended with 1× RIPA buffer (Millipore) and incubated on ice for 15 minutes. Protein lysates were extracted by centrifugating at 20,000 RPM for 20 minutes at 4° C. Proteins were separated and total BTK protein levels were quantified by Simple Western Immunoassay (ProteinSimple) using the 12-230 kDa Jess Separation Module according to the manufacturer's protocol, using a protein concentration of 0.25 μg/μl and antibodies targeting BTK (clone #D3H5, Cell Signalling) and β-Actin (clone #AC-15, Santa Cruz) diluted to 1:400 and 1:10, respectively, where the latter was used as a loading control. An equal ratio of rabbit and mouse HRP-conjugated secondary antibodies was used for detection. BTK protein levels were quantified relative to S-Actin loading levels and subsequently normalized to the DMSO control. Phosphorylated BTK levels were quantified using the Protein Normalization Assay Module for Jess (ProteinSimple) according to the manufacturer's protocol, using a protein concentration of 1.5 μg/μl and an antibody targeting pBTK (Y223) (Cell Signalling) diluted to 1:50. Phosphorylated BTK levels were quantified relative to the Protein Normalization Reagent and subsequently normalized to the DMSO control.

BTK [3] = target: T1, BTK; assay: Ramos RA1 cell lysis and immunoassay, total BTK degradation; assay type: cell-based; design: key to % BTK degradation (RAMOS, 24 h): Y: BTK bound in cells and BTK degradation occurred; concentration or dose not given beside the values; details: RAMOS cells
Experimental: as §1

BMX = BMX (Homo sapiens (Human), UniProt P51813); assay: HTRF KinEASE-TK kinase assay, BMX; assay type: biochemical; details: 3 h preincubation; for remaining activity at 1 µM: 1 uM compound; for remaining activity at 10 µM: 10 uM compound
Chain of BMX (P51813 whole entry): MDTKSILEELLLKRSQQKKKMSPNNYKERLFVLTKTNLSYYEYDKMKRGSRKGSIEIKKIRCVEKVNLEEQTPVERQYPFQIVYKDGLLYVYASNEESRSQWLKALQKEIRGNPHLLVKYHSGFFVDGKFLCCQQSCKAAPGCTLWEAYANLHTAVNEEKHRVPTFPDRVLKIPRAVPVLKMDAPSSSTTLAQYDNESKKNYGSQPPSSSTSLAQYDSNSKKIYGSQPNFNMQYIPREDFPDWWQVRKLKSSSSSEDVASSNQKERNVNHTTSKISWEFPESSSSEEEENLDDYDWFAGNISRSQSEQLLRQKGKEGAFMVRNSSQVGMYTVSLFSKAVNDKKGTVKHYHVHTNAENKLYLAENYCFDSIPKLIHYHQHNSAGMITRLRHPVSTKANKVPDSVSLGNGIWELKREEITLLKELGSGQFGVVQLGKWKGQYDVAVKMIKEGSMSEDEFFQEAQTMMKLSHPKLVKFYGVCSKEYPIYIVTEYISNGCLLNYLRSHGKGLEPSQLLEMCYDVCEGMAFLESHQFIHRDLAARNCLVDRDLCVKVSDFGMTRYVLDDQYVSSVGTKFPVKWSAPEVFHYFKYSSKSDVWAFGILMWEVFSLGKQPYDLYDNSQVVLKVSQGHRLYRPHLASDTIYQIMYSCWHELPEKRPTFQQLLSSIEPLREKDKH
Experimental: (§2) Kinase activity was monitored using a HTRF® KinEASE-TK kit from Cisbio (62TK0PEC). […] BMX was purchased from Promega. 0.333 ng/ul BMX (3.03 nM) was preincubated in the absence or presence of inhibitor at room temperature for 3 hours. The reaction with substrate was then initiated by adding biotinylated substrate and ATP. […] Reaction was terminated by adding 31.25 nM SA-XL665 and 100 fold diluted europium labelled antibody (Eu-Ab), diluted in 1× detection buffer that contained EDTA. After 60 min of incubation, the fluorescence emission was measured at 620 nm and 665 nm. The ratio of Em 665 nm to Em 620 nm was proportional to the amount of substrate phosphorylated by the kinase.

JAK3 = JAK3 (Homo sapiens (Human), UniProt P52333); assay: HTRF KinEASE-TK kinase assay, JAK3; assay type: biochemical; details: for remaining activity at 1 µM: read-out: % JAK3 Remaining activity vs DMSO (1 μM, 3 h); for remaining activity at 10 µM: read-out: % JAK3 Remaining activity vs DMSO (10 μM, 3 h); for IC50: dose response
Chain of JAK3 (P52333 781-1124): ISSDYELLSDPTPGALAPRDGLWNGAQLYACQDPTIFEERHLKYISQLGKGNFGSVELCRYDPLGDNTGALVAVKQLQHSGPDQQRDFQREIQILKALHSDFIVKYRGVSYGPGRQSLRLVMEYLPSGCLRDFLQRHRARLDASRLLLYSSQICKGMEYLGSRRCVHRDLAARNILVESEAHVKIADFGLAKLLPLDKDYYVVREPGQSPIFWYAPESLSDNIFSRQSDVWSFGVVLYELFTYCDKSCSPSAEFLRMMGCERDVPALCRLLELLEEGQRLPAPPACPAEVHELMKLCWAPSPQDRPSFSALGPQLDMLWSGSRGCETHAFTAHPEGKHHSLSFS
Experimental: as §2, with “JAK-3” for “BMX”, “0.0133” for “0.333”, “JAK3 (0.21” for “BMX (3.03”, “Reaction” for “The reaction”, “The reaction” for “Reaction”

FGFR4 = FGFR4 (Homo sapiens (Human), UniProt P22455); assay: HTRF KinEASE-TK kinase assay, FGFR4; assay type: biochemical; details: for remaining activity at 1 µM: read-out: % FGFR4 Remaining activity vs DMSO (1 μM, 3 h); for remaining activity at 10 µM: read-out: % FGFR4 Remaining activity vs DMSO (10 μM, 3 h); for IC50: dose response
Chain of FGFR4 (P22455 22-802): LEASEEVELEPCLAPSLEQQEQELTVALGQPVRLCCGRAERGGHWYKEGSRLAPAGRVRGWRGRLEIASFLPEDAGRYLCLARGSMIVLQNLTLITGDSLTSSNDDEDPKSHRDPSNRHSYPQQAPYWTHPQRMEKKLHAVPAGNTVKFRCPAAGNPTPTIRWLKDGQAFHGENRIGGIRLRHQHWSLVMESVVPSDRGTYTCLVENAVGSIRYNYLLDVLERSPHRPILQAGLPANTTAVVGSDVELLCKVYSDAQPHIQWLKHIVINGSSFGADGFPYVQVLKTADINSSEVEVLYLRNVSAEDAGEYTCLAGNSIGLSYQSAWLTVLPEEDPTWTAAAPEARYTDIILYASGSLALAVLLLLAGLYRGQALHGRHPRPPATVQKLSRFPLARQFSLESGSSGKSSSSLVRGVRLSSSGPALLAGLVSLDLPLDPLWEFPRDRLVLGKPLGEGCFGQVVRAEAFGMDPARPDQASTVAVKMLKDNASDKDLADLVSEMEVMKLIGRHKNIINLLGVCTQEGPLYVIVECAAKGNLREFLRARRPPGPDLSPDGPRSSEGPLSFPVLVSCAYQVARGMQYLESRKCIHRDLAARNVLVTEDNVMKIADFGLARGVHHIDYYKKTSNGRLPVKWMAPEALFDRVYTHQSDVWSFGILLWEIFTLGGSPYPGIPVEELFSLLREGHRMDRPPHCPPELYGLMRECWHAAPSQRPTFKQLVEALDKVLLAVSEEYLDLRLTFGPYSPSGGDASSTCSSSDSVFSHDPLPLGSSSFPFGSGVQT
Experimental: as §2, with “FGFR-4” for “BMX”, “FGFR4 (5.12” for “BMX (3.03”, “Reaction” for “The reaction”, “The reaction” for “Reaction”

RIPK2 = RIPK2 (Homo sapiens (Human), UniProt O43353); assay: In vitro RIPK2 inhibition; assay type: biochemical; details: for remaining activity at 1 µM: read-out: % RIPK2 Remaining activity vs DMSO (1 μM, 3 h); for remaining activity at 10 µM: read-out: % RIPK2 Remaining activity vs DMSO (10 μM, 3 h)
Chain of RIPK2 (O43353 whole entry, species assumed): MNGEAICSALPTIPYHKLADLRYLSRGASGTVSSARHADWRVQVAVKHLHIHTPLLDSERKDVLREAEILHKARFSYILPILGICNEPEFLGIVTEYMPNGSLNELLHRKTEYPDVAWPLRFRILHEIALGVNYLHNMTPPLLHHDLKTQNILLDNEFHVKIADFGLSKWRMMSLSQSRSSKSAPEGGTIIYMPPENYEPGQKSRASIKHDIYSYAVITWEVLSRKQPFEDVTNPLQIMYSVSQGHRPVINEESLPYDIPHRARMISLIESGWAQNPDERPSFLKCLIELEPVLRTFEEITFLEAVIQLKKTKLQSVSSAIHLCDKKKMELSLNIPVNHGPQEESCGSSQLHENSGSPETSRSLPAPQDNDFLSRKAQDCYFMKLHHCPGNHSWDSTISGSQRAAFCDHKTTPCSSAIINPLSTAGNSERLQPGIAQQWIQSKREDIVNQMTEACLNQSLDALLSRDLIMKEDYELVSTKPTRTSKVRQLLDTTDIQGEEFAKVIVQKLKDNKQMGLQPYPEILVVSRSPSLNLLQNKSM

Row | remaining activity at 1 µM (EGFR) [%] | remaining activity at 10 µM (EGFR) [%] | remaining activity at 1 µM (BTK [1]) [%] | remaining activity at 10 µM (BTK [1]) [%] | pBTK inhibition (RAMOS, 24 h) (BTK [2]; compound concentration 1 μM) | % BTK degradation (RAMOS, 24 h) (BTK [3]) | remaining activity at 1 µM (BMX) [%] | remaining activity at 10 µM (BMX) [%] | remaining activity at 1 µM (JAK3) [%] | remaining activity at 10 µM (JAK3) [%] | remaining activity at 1 µM (FGFR4) [%] | remaining activity at 10 µM (FGFR4) [%] | remaining activity at 1 µM (RIPK2) [%] | remaining activity at 10 µM (RIPK2) [%] | IC50 (JAK3) [nM] | IC50 (BTK [1]; dose response, read-out: BTK Inhibition IC50) [nM] | pBTK inhibition (RAMOS, 24 h) (BTK [2]; compound concentration 2.5 μM) | IC50 (FGFR4) [nM] | pBTK inhibition (RAMOS, 24 h) (BTK [2]; compound concentration 5 μM) | SMILES
1 | > 90 | > 90 | < 50 | < 50 | X | Y | < 50 | < 50 | > 90 | > 90 | 50 to 90 | < 50 | > 90 | > 90 | – | – | – | – | – | Nc1ncnc2c1c(-c1ccc(Oc3ccccc3)cc1)nn2[C@@H]1CCCN(C(=O)c2c(F)c(F)c(F)c(F)c2S(N)(=O)=O)C1 [Compound I-35, (R)-2-(3-(4-amino-3-(4-phenoxyphenyl)-1H-pyrazolo[3,4-d]pyrimidin-1-yl)piperidine-1-carbonyl)-3,4,5,6-tetrafluorobenzenesulfonamide]
2 | > 90 | > 90 | 50 to 90 | < 50 | – | Y | 50 to 90 | < 50 | > 90 | > 90 | 50 to 90 | < 50 | < 50 | < 50 | – | – | – | – | – | CS(=O)(=O)c1c(F)c(F)c(F)c(F)c1C(=O)n1ccc2c(N)ncnc21 [Compound I-49, (4-amino-7H-pyrrolo[2,3-d]pyrimidin-7-yl)(2,3,4,5-tetrafluoro-6-(methylsulfonyl)phenyl)methanone]
3 | > 90 | 50 to 90 | < 50 | < 50 | X | – | < 50 | < 50 | < 50 | < 50 | > 90 | < 50 | – | – | < 1000 | – | – | – | – | COCCOc1ccc(Nc2ncc(F)c(NCCCNS(=O)(=O)c3c(F)c(F)c(F)c(F)c3C(F)F)n2)cc1 [Compound I-52, 2-(difluoromethyl)-3,4,5,6-tetrafluoro-N-(3-((5-fluoro-2-((4-(2-methoxyethoxy)phenyl)amino)pyrimidin-4-yl)amino)propyl)benzenesulfonamide]
4 | 50 to 90 | < 50 | < 50 | < 50 | – | – | < 50 | < 50 | < 50 | < 50 | < 50 | < 50 | – | – | < 1000 | < 1000 | X | < 1000 | – | COCCOc1ccc(Nc2ncc(F)c(Nc3cccc(NS(=O)(=O)c4c(F)c(F)c(F)c(F)c4C(F)(F)F)c3)n2)cc1 [Compound I-53, 2,3,4,5-tetrafluoro-N-(3-((5-fluoro-2-((4-(2-methoxyethoxy)phenyl)amino)pyrimidin-4-yl)amino)phenyl)-6-(trifluoromethyl)benzenesulfonamide]
5 | > 90 | 50 to 90 | < 50 | < 50 | – | – | < 50 | < 50 | < 50 | < 50 | < 50 | < 50 | – | – | > 1000 | – | – | < 1000 | X | COCCOc1ccc(Nc2ncc(F)c(Nc3cccc(NS(=O)(=O)c4c(F)c(F)c(F)c(F)c4OC(F)F)c3)n2)cc1 [Compound I-54, 2-(difluoromethoxy)-3,4,5,6-tetrafluoro-N-(3-((5-fluoro-2-((4-(2-methoxyethoxy)phenyl)amino)pyrimidin-4-yl)amino)phenyl)benzenesulfonamide]
